Values after ≈ are worked out from the molar mass of the structure shown. “Also recorded” adds a separate entry of the source. Counter-ions that a name gives are not always drawn.

In one series the target is T1, P. aeruginosa RmlA (Pseudomonas aeruginosa, UniProt Q9HU22).
T1 construct: made in house
As to the kind of experiment: In vitro RmlA inhibition assay (BIOMOL Green phosphate detection). It is filed as biochemical. The following applies: for inhibition at 10 µM: 10 μM inhibitor, 30 min, room temperature; for inhibition at 10 µM / IC50: 15 nM recombinant RmlA, 5 μM dTTP, 5 μM G-1-P; for LE (Ligand efficiency): LE = pIC50/number of heavy atoms; for LLE (Lipophilic ligand efficiency): LLE = pIC50 – cLogP; for increase in potency compared to 1b: ratio of IC50 values vs 1b; for IC50: ± SD, n = 3. As to the method: Each assay was performed in a 101 μL reaction volume containing 50 mM Tris (pH 7.4), 5 mM MgCl2, 1 mM dithiothreitol, 0.1 mM EDTA (pH 8.0), 0.1 mM EGTA (pH 8.0), 0.05% NP-40, 15 nM recombinant RmlA, 0.8 μg/ml pyrophosphatase, 5 μM dTTP and 5 μM G-1-P. The inhibitor was added to the plate (20 μL) followed by RmlA (30 μL). The reaction was initiated with the addition of dTTP (25 μL), G-1-P (25 μL) and pyrophosphatase (1 μL) as a mixture in one charge (51 μL total) and the assay was allowed to run for 30 min at room temperature. The reaction was quenched by addition of BIOMOL™ Green reagent (100 μL) and was allowed to develop before the absorbance of each well was measured at 620 nm.

The test system of a further series is M.tuberculosis (H37Rv). On the set-up: method as in PMID 23138692. The following applies: cited from earlier work.

T1 sequence (Q9HU22 1-293): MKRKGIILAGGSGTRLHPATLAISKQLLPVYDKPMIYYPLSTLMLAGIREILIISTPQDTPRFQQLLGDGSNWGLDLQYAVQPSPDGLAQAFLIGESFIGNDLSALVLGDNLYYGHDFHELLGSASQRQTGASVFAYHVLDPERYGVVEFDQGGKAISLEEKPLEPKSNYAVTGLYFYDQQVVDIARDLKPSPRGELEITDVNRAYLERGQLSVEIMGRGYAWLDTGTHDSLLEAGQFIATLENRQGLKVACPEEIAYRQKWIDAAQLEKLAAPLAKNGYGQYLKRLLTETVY

`CN(c1c(NCCCCN)n(Cc2ccc(Br)cc2)c(=O)[nH]c1=O)S(=O)(=O)c1ccccc1` [Compound 1d, N-(6-((4-aminobutyl)amino)-1-(4-bromobenzyl)-2,4-dioxo-1,2,3,4-tetrahydropyrimidin-5-yl)-N-methylbenzenesulfonamide] displayed a melting point of 311 to 313 °C. At P. aeruginosa RmlA, the inhibition at 10 µM was determined as 100%, the “LE (Ligand efficiency)” value was 0.28, the “LLE (Lipophilic ligand efficiency)” value is 4.40 and the “increase in potency compared to 1b” value was about 2.5 fold. The concentration for half-maximal inhibition (IC50) at P. aeruginosa RmlA came out at 303 ± 26 nM.
Regarding `CN(c1c(N)n(Cc2ccc(Br)cc2)c(=O)[nH]c1=O)S(=O)(=O)c1ccccc1` [Compound 1a], at P. aeruginosa RmlA, the inhibition at 10 µM was 100%, the “LE (Ligand efficiency)” value was found to be 0.37, the “LLE (Lipophilic ligand efficiency)” value is given as 5.20 and the IC50 amounted to 34 ± 2 nM.
In turn, `CN(c1c(NCCCCCN)n(Cc2ccc(Br)cc2)c(=O)[nH]c1=O)S(=O)(=O)c1ccccc1` [Compound 1e, N-(6-((5-aminopentyl)amino)-1-(4-bromobenzyl)-2,4-dioxo-1,2,3,4-tetrahydropyrimidin-5-yl)-N-methylbenzenesulfonamide] gave a melting point of 317 to 319 °C. Moreover, on P. aeruginosa RmlA, the inhibition at 10 µM is 100%, the “LE (Ligand efficiency)” value worked out at 0.27, the “LLE (Lipophilic ligand efficiency)” value was determined as 3.90 and the “increase in potency compared to 1b” value is listed as about 2.5 fold. For the same compound, the half-inhibitory concentration (IC50) at P. aeruginosa RmlA was 316 ± 23 nM.
As to `CN(c1c(NCCCn2cc(CN)nn2)n(Cc2ccccc2)c(=O)[nH]c1=O)S(=O)(=O)c1ccccc1` [Compound 1f], the melting point lay within 295 to 297 °C. Further, at P. aeruginosa RmlA, the inhibition at 10 µM amounted to 100%, the “LE (Ligand efficiency)” value is given as 0.21, the “LLE (Lipophilic ligand efficiency)” value is reported as 4.50 and the IC50 was 2470 ± 20 nM.
On to `CNCCNc1c(N(C)S(=O)(=O)c2ccccc2)c(=O)[nH]c(=O)n1Cc1ccc(Br)cc1` [Compound 1c, N-(1-(4-bromobenzyl)-6-((2-(methylamino)ethyl)amino)-2,4-dioxo-1,2,3,4-tetrahydropyrimidin-5-yl)-N-methylbenzenesulfonamide], for which, on P. aeruginosa RmlA, the “activity against P. aeruginosa RmlA (in words)” value is on record as “complete loss of activity; also recorded: lost the inhibitory activity” and the inhibition at 10 µM was found to be 0%.
Turning to `CN(c1c(N)n(Cc2ccccc2)c(=O)[nH]c1=O)S(=O)(=O)c1ccccc1` [Compound 8a], in the series on M.tuberculosis (H37Rv), the “MIC100 (M. tuberculosis)” value is 100 µg/mL (≈ 259 µM).
`CNCCNc1c(N(C)S(=O)(=O)c2ccccc2)c(=O)[nH]c(=O)n1Cc1ccc(Br)cc1` (as salt: TFA) [Compound 1c, N-(1-(4-bromobenzyl)-6-((2-(methylamino)ethyl)amino)-2,4-dioxo-1,2,3,4-tetrahydropyrimidin-5-yl)-N-methylbenzenesulfonamide] returned a melting point of 283 to 286 °C.
Turning to `CNCCCNc1c(N(C)S(=O)(=O)c2ccccc2)c(=O)[nH]c(=O)n1Cc1ccc(Br)cc1` (as salt: TFA) [Compound 1b, N-(1-(4-bromobenzyl)-6-((3-(methylamino)propyl)amino)-2,4-dioxo-1,2,3,4-tetrahydropyrimidin-5-yl)-N-methylbenzenesulfonamide], the melting point lay within 294 to 297 °C.
For the compound `CNCCCNc1c(N(C)S(=O)(=O)c2ccccc2)c(=O)[nH]c(=O)n1Cc1ccc(Br)cc1` [Compound 1b, N-(1-(4-bromobenzyl)-6-((3-(methylamino)propyl)amino)-2,4-dioxo-1,2,3,4-tetrahydropyrimidin-5-yl)-N-methylbenzenesulfonamide], on P. aeruginosa RmlA, the inhibition at 10 µM was determined as 100%, the “LE (Ligand efficiency)” value is reported as 0.30, the “LLE (Lipophilic ligand efficiency)” value is given as 4.30 and the half-inhibitory concentration (IC50) was 860 ± 96 nM.

As usually defined, the inhibition is the relative decrease from the control value, in per cent. By IC50 is commonly meant the midpoint of a concentration-inhibition curve. What is called melting point is the temperature of the solid-liquid transition.

(Values after publication PMC8613358, “Next generation Glucose-1-phosphate thymidylyltransferase (RmlA) inhibitors: An extended SAR study to direct future design” (Bioorganic & Medicinal Chemistry, 2021).)
